# Reference: ChEMBL document CHEMBL5143680, “Cytotoxic Bromine- and Iodine-Containing Cytochalasins Produced by the Mangrove Endophytic Fungus Phomopsis sp. QYM-13 Using the OSMAC Approach” (J Nat Prod, 2022)
# pIC50: −log10 of the molar value.
# Test system: MDA-MB-231
# Assay: Cytotoxicity against human MDA-MB-231 cells measured after 72 hrs by MTT assay
# Assay type: functional, cell-based
# Details: MDA-MB-231, 72 h
row,SMILES,pIC50
1,C=C1[C@@H](C)[C@H]2[C@H](Cc3ccccc3)NC(=O)[C@@]23[C@H]2[C@@H]4[C@H](C(C)=C[C@@H](C)C[C@H]4O[C@H]12)[C@H]3OC(C)=O,< 4.30
2,CC(=O)O[C@@H]1/C=C/[C@](C)(O)C[C@@H](C)C/C=C/[C@H]2C=C(CO)[C@@H](C)[C@H]3[C@H](Cc4ccccc4)NC(=O)[C@]321,4.38
3,C=C1/C=C/[C@@H](OC(C)=O)[C@@]23C(=O)N[C@@H](Cc4ccccc4)[C@@H]2[C@H](C)C(=C)[C@@H](O)[C@@H]3/C=C/C[C@H](C)C1,4.46
4,CC1=C[C@@H]2/C=C/C[C@H](C)C[C@@](C)(O)/C=C/[C@@H](O)[C@]23C(=O)N[C@@H](Cc2ccccc2)[C@@H]3[C@@H]1C,< 4.30
5,C=C1[C@@H](C)[C@H]2[C@H](Cc3ccccc3)NC(=O)[C@@]23[C@H]2[C@@H]4[C@H](C(C)=C[C@@H](C)C[C@H]4O[C@H]12)[C@@H](I)[C@H]3O,< 4.30
6,C=C1[C@@H](C)[C@H]2[C@H](Cc3ccccc3)NC(=O)[C@]23[C@H](OC(C)=O)[C@@H]2O[C@H]2[C@](C)(O)C[C@@H](C)C/C=C/[C@H]3[C@@H]1O,< 4.30
7,C=C1[C@@H](C)[C@H]2[C@H](Cc3ccccc3)NC(=O)[C@]23[C@H](OC(C)=O)/C=C/[C@](C)(O)C[C@@H](C)C/C=C/[C@H]3[C@@H]1O,4.38
8,C=C1[C@@H](C)[C@H]2[C@H](Cc3ccccc3)NC(=O)[C@@]23[C@H]2[C@@H]4[C@H](C(C)=C[C@@H](C)C[C@H]4O[C@H]12)[C@H]3O,< 4.30
9,C[C@H]1C/C=C/[C@H]2C=C(CO)[C@@H](C)[C@H]3[C@H](Cc4ccccc4)NC(=O)[C@]32[C@H](O)/C=C/[C@](C)(O)C1,< 4.30

# Test system: HepG2
# Assay: Cytotoxicity against human HepG2 cells measured after 72 hrs by MTT assay
# Assay type: functional, cell-based
# Details: HepG2, 72 h
row,SMILES,pIC50
1,C=C1[C@@H](C)[C@H]2[C@H](Cc3ccccc3)NC(=O)[C@@]23[C@H]2[C@@H]4[C@H](C(C)=C[C@@H](C)C[C@H]4O[C@H]12)[C@H]3OC(C)=O,< 4.30
2,CC(=O)O[C@@H]1/C=C/[C@](C)(O)C[C@@H](C)C/C=C/[C@H]2C=C(CO)[C@@H](C)[C@H]3[C@H](Cc4ccccc4)NC(=O)[C@]321,< 4.30
3,C=C1/C=C/[C@@H](OC(C)=O)[C@@]23C(=O)N[C@@H](Cc4ccccc4)[C@@H]2[C@H](C)C(=C)[C@@H](O)[C@@H]3/C=C/C[C@H](C)C1,< 4.30
4,CC1=C[C@@H]2/C=C/C[C@H](C)C[C@@](C)(O)/C=C/[C@@H](O)[C@]23C(=O)N[C@@H](Cc2ccccc2)[C@@H]3[C@@H]1C,< 4.30
5,C=C1[C@@H](C)[C@H]2[C@H](Cc3ccccc3)NC(=O)[C@@]23[C@H]2[C@@H]4[C@H](C(C)=C[C@@H](C)C[C@H]4O[C@H]12)[C@@H](I)[C@H]3O,< 4.30
6,C=C1[C@@H](C)[C@H]2[C@H](Cc3ccccc3)NC(=O)[C@]23[C@H](OC(C)=O)[C@@H]2O[C@H]2[C@](C)(O)C[C@@H](C)C/C=C/[C@H]3[C@@H]1O,< 4.30
7,C=C1[C@@H](C)[C@H]2[C@H](Cc3ccccc3)NC(=O)[C@]23[C@H](OC(C)=O)/C=C/[C@](C)(O)C[C@@H](C)C/C=C/[C@H]3[C@@H]1O,< 4.30
8,C=C1[C@@H](C)[C@H]2[C@H](Cc3ccccc3)NC(=O)[C@@]23[C@H]2[C@@H]4[C@H](C(C)=C[C@@H](C)C[C@H]4O[C@H]12)[C@H]3O,< 4.30
9,C[C@H]1C/C=C/[C@H]2C=C(CO)[C@@H](C)[C@H]3[C@H](Cc4ccccc4)NC(=O)[C@]32[C@H](O)/C=C/[C@](C)(O)C1,< 4.30

# Test system: SNB-19
# Assay: Cytotoxicity against human SNB-19 cells measured after 72 hrs by MTT assay
# Assay type: functional, cell-based
# Details: SNB-19, 72 h
row,SMILES,pIC50
1,C=C1[C@@H](C)[C@H]2[C@H](Cc3ccccc3)NC(=O)[C@@]23[C@H]2[C@@H]4[C@H](C(C)=C[C@@H](C)C[C@H]4O[C@H]12)[C@H]3OC(C)=O,< 4.30
2,CC(=O)O[C@@H]1/C=C/[C@](C)(O)C[C@@H](C)C/C=C/[C@H]2C=C(CO)[C@@H](C)[C@H]3[C@H](Cc4ccccc4)NC(=O)[C@]321,5.16
3,C=C1/C=C/[C@@H](OC(C)=O)[C@@]23C(=O)N[C@@H](Cc4ccccc4)[C@@H]2[C@H](C)C(=C)[C@@H](O)[C@@H]3/C=C/C[C@H](C)C1,4.80
4,CC1=C[C@@H]2/C=C/C[C@H](C)C[C@@](C)(O)/C=C/[C@@H](O)[C@]23C(=O)N[C@@H](Cc2ccccc2)[C@@H]3[C@@H]1C,< 4.30
5,C=C1[C@@H](C)[C@H]2[C@H](Cc3ccccc3)NC(=O)[C@@]23[C@H]2[C@@H]4[C@H](C(C)=C[C@@H](C)C[C@H]4O[C@H]12)[C@@H](I)[C@H]3O,< 4.30
6,C=C1[C@@H](C)[C@H]2[C@H](Cc3ccccc3)NC(=O)[C@]23[C@H](OC(C)=O)[C@@H]2O[C@H]2[C@](C)(O)C[C@@H](C)C/C=C/[C@H]3[C@@H]1O,< 4.30
7,C=C1[C@@H](C)[C@H]2[C@H](Cc3ccccc3)NC(=O)[C@]23[C@H](OC(C)=O)/C=C/[C@](C)(O)C[C@@H](C)C/C=C/[C@H]3[C@@H]1O,4.59
8,C=C1[C@@H](C)[C@H]2[C@H](Cc3ccccc3)NC(=O)[C@@]23[C@H]2[C@@H]4[C@H](C(C)=C[C@@H](C)C[C@H]4O[C@H]12)[C@H]3O,< 4.30
9,C[C@H]1C/C=C/[C@H]2C=C(CO)[C@@H](C)[C@H]3[C@H](Cc4ccccc4)NC(=O)[C@]32[C@H](O)/C=C/[C@](C)(O)C1,< 4.30

# Test system: MDA-MB-435
# Assay: Cytotoxicity against human MDA-MB-435 cells measured after 72 hrs by MTT assay
# Assay type: functional, cell-based
# Details: MDA-MB-435, 72 h
row,SMILES,pIC50
1,C=C1[C@@H](C)[C@H]2[C@H](Cc3ccccc3)NC(=O)[C@@]23[C@H]2[C@@H]4[C@H](C(C)=C[C@@H](C)C[C@H]4O[C@H]12)[C@H]3OC(C)=O,4.44
2,CC(=O)O[C@@H]1/C=C/[C@](C)(O)C[C@@H](C)C/C=C/[C@H]2C=C(CO)[C@@H](C)[C@H]3[C@H](Cc4ccccc4)NC(=O)[C@]321,5.09
3,C=C1/C=C/[C@@H](OC(C)=O)[C@@]23C(=O)N[C@@H](Cc4ccccc4)[C@@H]2[C@H](C)C(=C)[C@@H](O)[C@@H]3/C=C/C[C@H](C)C1,4.96
4,CC1=C[C@@H]2/C=C/C[C@H](C)C[C@@](C)(O)/C=C/[C@@H](O)[C@]23C(=O)N[C@@H](Cc2ccccc2)[C@@H]3[C@@H]1C,4.42
5,C=C1[C@@H](C)[C@H]2[C@H](Cc3ccccc3)NC(=O)[C@@]23[C@H]2[C@@H]4[C@H](C(C)=C[C@@H](C)C[C@H]4O[C@H]12)[C@@H](I)[C@H]3O,< 4.30
6,C=C1[C@@H](C)[C@H]2[C@H](Cc3ccccc3)NC(=O)[C@]23[C@H](OC(C)=O)[C@@H]2O[C@H]2[C@](C)(O)C[C@@H](C)C/C=C/[C@H]3[C@@H]1O,4.38
7,C=C1[C@@H](C)[C@H]2[C@H](Cc3ccccc3)NC(=O)[C@]23[C@H](OC(C)=O)/C=C/[C@](C)(O)C[C@@H](C)C/C=C/[C@H]3[C@@H]1O,6.70
8,C=C1[C@@H](C)[C@H]2[C@H](Cc3ccccc3)NC(=O)[C@@]23[C@H]2[C@@H]4[C@H](C(C)=C[C@@H](C)C[C@H]4O[C@H]12)[C@H]3O,< 4.30
9,C[C@H]1C/C=C/[C@H]2C=C(CO)[C@@H](C)[C@H]3[C@H](Cc4ccccc4)NC(=O)[C@]32[C@H](O)/C=C/[C@](C)(O)C1,4.60

# Test system: A549
# Assay: Cytotoxicity against human A549 cells measured after 72 hrs by MTT assay
# Assay type: functional, cell-based
# Details: A549, 72 h
row,SMILES,pIC50
1,C=C1[C@@H](C)[C@H]2[C@H](Cc3ccccc3)NC(=O)[C@@]23[C@H]2[C@@H]4[C@H](C(C)=C[C@@H](C)C[C@H]4O[C@H]12)[C@H]3OC(C)=O,< 4.30
2,CC(=O)O[C@@H]1/C=C/[C@](C)(O)C[C@@H](C)C/C=C/[C@H]2C=C(CO)[C@@H](C)[C@H]3[C@H](Cc4ccccc4)NC(=O)[C@]321,4.42
3,C=C1/C=C/[C@@H](OC(C)=O)[C@@]23C(=O)N[C@@H](Cc4ccccc4)[C@@H]2[C@H](C)C(=C)[C@@H](O)[C@@H]3/C=C/C[C@H](C)C1,< 4.30
4,CC1=C[C@@H]2/C=C/C[C@H](C)C[C@@](C)(O)/C=C/[C@@H](O)[C@]23C(=O)N[C@@H](Cc2ccccc2)[C@@H]3[C@@H]1C,4.42
5,C=C1[C@@H](C)[C@H]2[C@H](Cc3ccccc3)NC(=O)[C@@]23[C@H]2[C@@H]4[C@H](C(C)=C[C@@H](C)C[C@H]4O[C@H]12)[C@@H](I)[C@H]3O,< 4.30
6,C=C1[C@@H](C)[C@H]2[C@H](Cc3ccccc3)NC(=O)[C@]23[C@H](OC(C)=O)[C@@H]2O[C@H]2[C@](C)(O)C[C@@H](C)C/C=C/[C@H]3[C@@H]1O,< 4.30
7,C=C1[C@@H](C)[C@H]2[C@H](Cc3ccccc3)NC(=O)[C@]23[C@H](OC(C)=O)/C=C/[C@](C)(O)C[C@@H](C)C/C=C/[C@H]3[C@@H]1O,< 4.30
8,C=C1[C@@H](C)[C@H]2[C@H](Cc3ccccc3)NC(=O)[C@@]23[C@H]2[C@@H]4[C@H](C(C)=C[C@@H](C)C[C@H]4O[C@H]12)[C@H]3O,< 4.30
9,C[C@H]1C/C=C/[C@H]2C=C(CO)[C@@H](C)[C@H]3[C@H](Cc4ccccc4)NC(=O)[C@]32[C@H](O)/C=C/[C@](C)(O)C1,< 4.30

# Test system: not listed separately
# Assay: Cytotoxicity against African green monkey Vero cells measured after 72 hrs by MTT assay
# Assay type: toxicity, cell-based
# Details: African green monkey (Chlorocebus sabaeus)
row,SMILES,IC50 at 72 h
1,C=C1[C@@H](C)[C@H]2[C@H](Cc3ccccc3)NC(=O)[C@@]23[C@H]2[C@@H]4[C@H](C(C)=C[C@@H](C)C[C@H]4O[C@H]12)[C@H]3OC(C)=O,34 µM
2,CC(=O)O[C@@H]1/C=C/[C@](C)(O)C[C@@H](C)C/C=C/[C@H]2C=C(CO)[C@@H](C)[C@H]3[C@H](Cc4ccccc4)NC(=O)[C@]321,22 µM
3,C=C1/C=C/[C@@H](OC(C)=O)[C@@]23C(=O)N[C@@H](Cc4ccccc4)[C@@H]2[C@H](C)C(=C)[C@@H](O)[C@@H]3/C=C/C[C@H](C)C1,14 µM
4,CC1=C[C@@H]2/C=C/C[C@H](C)C[C@@](C)(O)/C=C/[C@@H](O)[C@]23C(=O)N[C@@H](Cc2ccccc2)[C@@H]3[C@@H]1C,44 µM
5,C=C1[C@@H](C)[C@H]2[C@H](Cc3ccccc3)NC(=O)[C@@]23[C@H]2[C@@H]4[C@H](C(C)=C[C@@H](C)C[C@H]4O[C@H]12)[C@@H](I)[C@H]3O,39 µM
6,C=C1[C@@H](C)[C@H]2[C@H](Cc3ccccc3)NC(=O)[C@]23[C@H](OC(C)=O)[C@@H]2O[C@H]2[C@](C)(O)C[C@@H](C)C/C=C/[C@H]3[C@@H]1O,> 50 µM
7,C=C1[C@@H](C)[C@H]2[C@H](Cc3ccccc3)NC(=O)[C@]23[C@H](OC(C)=O)/C=C/[C@](C)(O)C[C@@H](C)C/C=C/[C@H]3[C@@H]1O,40 µM
8,C=C1[C@@H](C)[C@H]2[C@H](Cc3ccccc3)NC(=O)[C@@]23[C@H]2[C@@H]4[C@H](C(C)=C[C@@H](C)C[C@H]4O[C@H]12)[C@H]3O,> 50 µM
9,C[C@H]1C/C=C/[C@H]2C=C(CO)[C@@H](C)[C@H]3[C@H](Cc4ccccc4)NC(=O)[C@]32[C@H](O)/C=C/[C@](C)(O)C1,> 50 µM
